Measurements: patent US7951921B2, “Multivalent carriers of bi-specific antibodies” (Immunomedics, Inc., priority 2003, dated 2011)
Primed or numbered codes have the meaning given here. DTPA′ = diethylenetriaminepentaacetic acid

Tests used:
[1] = test system: hMN-14IgG^(I253A)-(734scFv)2; assay: Stoichiometry of targetable complexes, In-111 IMP 246 mixed with bsAb, size exclusion HPLC; assay type: binding; conditions: 1:10 (IMP 246:bsAb) mole ratio; peak at 8.5 min
Method: (§1) This Example describes experiments designed to determine the stoichiometry of different species of targetable complexes that arise when the targetable divalent construct IMP 246 is mixed with bsAbs hMN-14IgG^(I253A)-(734scFv)2, and hMN-14IgG-(734scFv)2.
(§2) The peptide IMP 246 was dissolved in 100 mL of a solution which contained 0.418 g citric acid and 10.06 g of HPCD buffered at pH 4.3. The solution was filter sterilized through a 0.22 ? m Millex GV filters in 1 mL aliquots into vials that were immediately frozen and lyophilized.
(§3) The IMP 246 was labeled with In-111 as follows. The In-111 was diluted with 0.5 mL water and added to a lyophilized IMP 246 kit. The solution was allowed to incubate at room temperature for 10 min. A 1.5 mL aliquot of a solution containing […] in 0.5 M NaOAc buffer pH 7.17 was then added to the kit.
(§4) The In-111-labelled IMP 246 was mixed with bsAb in a 1:10 (IMP 246:bsAb) mole ratio and then examined by size exclusion HPLC. When mixed with the mutant bsAb, i.e., hMN-14IgG^(I253A)-(734scFv)2, about 90% of the In-111 label was found at a clean sharp peak at 8.5 min (FIG. 8A). When mixed with hMN-14IgG-(734scFv)2, the peak was somewhat broader, comprised about 83% of the In-111 label and was found at 7.5 min (FIG. 8B). In contrast, the antibody:peptide complexes formed when IMP 192 was used were found at 9.5 min (FIG. 7).

hMN-14IgG-(734scFv)2 = assay: as above; assay type: binding; conditions: 1:10 (IMP 246:bsAb) mole ratio; peak at 7.5 min
Method: as §1, §2, §3, §4

[2] = Stability of IMP 246 and its complex in fresh mouse serum, size exclusion HPLC; assay type: in vitro ADME; conditions: 37° C.
Method: […] A 10 μL aliquot was removed and mixed with 5 μL of 3.2 mg/mL 14IgG^(I253A)-(734scFv)2 and diluted with 40 μL water. A 10 μL aliquot of the diluted mixture was then examined by size exclusion HPLC.
A 4 μL aliquot of the labeled peptide solution was mixed with 10 μL of the 3.2 mg/mL hMN-14 IgG^(I253A)-(734scFv)2 and diluted in 400 μL of fresh mouse serum. The serum sample was incubated at 37° C. for 16 hr and then analyzed by size exclusion HPLC.
Three broad peaks comprised about 20%, 41% and 37% of the area under the curve of the HPLC tracing.

Raji cells = assay: Apoptosis of Raji cells after cross-linking of bound hA20IgG-(734scFv)2; assay type: cell-based; conditions: Raji cells incubated with hA20IgG-(734scFv)2, 3 days, 37 degrees C.
Method: Raji cells in culture are incubated with hA20IgG-(734scFv)2. To one set of wells is added IMP-246 to cross-link molecules of hA20IgG-(734scFv)2 bound to CD20 on the surface of the Raji cells. A second set of wells to which IMP-246 is not added serve as controls, and both sets of wells incubated at 37 degrees C.
An average of 5 molecules IMP-222 are conjugated to human serum albumin (hAlb-222). The experiment described in the paragraph above is repeated, but hAb-222 is used to cross-link molecules of hA20IgG-(734scFv)2 bound to CD20 on the surface of the Raji cells, in place of IMP-246.

[Ac-Cys-Lys(DTPA)-Tyr-Lys(DTPA)-NH2]2 (Ac-CK(DTPA′)YK(DTPA′)-NH2; also: disulfide-linked homodimer of two chains, disulfide at 1, other end not in the chain) [IMP 246]
In-111 label found in complex peak [1]: about 90%
In-111 label found in complex peak (hMN-14IgG-(734scFv)2): about 83%
area under the curve of HPLC tracing in distinct peak at predicted position ([2]; in presence of bi-specific antibody, mouse serum, 16 hr): ≥ 90%
stability in mouse serum ([2]; peptide alone, 16 hours): unstable
apoptosis (Raji cells): extensive apoptosis
